Test results from ChEMBL document CHEMBL4118193, “1,2,3,4,6-Penta-O-galloyl-β-d-glucose suppresses colon cancer through induction of tumor suppressor” (Bioorg Med Chem Lett, 2018).
pIC50: −log10 of the molar value. The source made the active and inactive calls. The rule behind the calls is not given here.

Tests used:
HT-29 [1] = assay: Cytotoxicity against human HT-29 cells at 10 uM after 48 hrs by CytoTox-96 non-radioactive assay; format: functional, cell-based
HT-29 [2] = assay: Antiproliferative activity against human HT-29 cells at 1 to 10 uM after 48 hrs by CytoTox-96 non-radioactive assay; format: functional, cell-based
CCD-18Co = assay: Antiproliferative activity against human CCD-18Co cells at 1 to 10 uM after 48 hrs by CytoTox-96 non-radioactive assay; format: cell-based
HCT-116 [3] = assay: Anticlonogenic activity against human HCT116 cells assessed as inhibition of colony formation after 4 to 5 days by crystal violet staining-based assay; format: functional, cell-based
HCT-116 [4] = assay: Cell cycle arrest in human HCT116 cells assessed as accumulation at G0/G1 phase at 5 uM after 48 hrs (reference value: 38.5%); format: functional
HCT-116 [5] = assay: Cell cycle arrest in human HCT116 cells assessed as accumulation at S phase at 1 uM after 48 hrs (reference value: 10.9%); format: functional
HCT-116 [6] = assay: Cell cycle arrest in human HCT116 cells assessed as accumulation at S phase at 2.5 uM after 48 hrs (reference value: 10.9%); format: functional
HCT-116 [7] = assay: Cell cycle arrest in human HCT116 cells assessed as accumulation at S phase at 5 uM after 48 hrs (reference value: 10.9%); format: functional
HCT-116 [8] = assay: Cell cycle arrest in human HCT116 cells assessed as accumulation at G2/M phase at 2.5 uM after 48 hrs (reference value: 21.5%); format: functional
HT-29 [9] = assay: Cell cycle arrest in human HT-29 cells assessed as accumulation at G0/G1 phase at 10 uM after 48 hrs (reference value: 53.9%); format: functional
HT-29 [10] = assay: Cell cycle arrest in human HT-29 cells assessed as accumulation at G2/M phase at 10 uM after 48 hrs (reference value: 14.7%); format: functional
HCT-116 [11] = assay: Induction of apoptosis in human HCT116 cells assessed as live cells at 2.5 uM after 48 hrs by Annexin-V and dead cell assay (reference value: 96.75%); format: functional
HCT-116 [12] = assay: Induction of apoptosis in human HCT116 cells assessed as live cells at 10 uM after 48 hrs by Annexin-V and dead cell assay (reference value: 96.75%); format: functional
HCT-116 [13] = assay: Induction of apoptosis in human HCT116 cells assessed as early apoptotic cells at 2.5 uM after 48 hrs by Annexin-V and dead cell assay (reference value: 1.70%); format: functional
HCT-116 [14] = assay: Induction of apoptosis in human HCT116 cells assessed as early apoptotic cells at 5 uM after 48 hrs by Annexin-V and dead cell assay (reference value: 1.70%); format: functional
HCT-116 [15] = assay: Induction of apoptosis in human HCT116 cells assessed as late apoptotic cells at 1 uM after 48 hrs by Annexin-V and dead cell assay (reference value: 1.45%); format: functional
HCT-116 [16] = assay: Induction of apoptosis in human HCT116 cells assessed as necrotic cells at 10 uM after 48 hrs by Annexin-V and dead cell assay (reference value: 0.10%); format: functional
HCT-116 [17] = assay: Induction of apoptosis in human HCT116 cells assessed as DNA fragmentation at 1 to 10 uM after 48 hrs by ELISA; format: functional, cell-based
HCT-116 [18] = assay: Induction of apoptosis in human HCT116 cells assessed as cyclin E protein level at 10 uM after 48 hrs by Western blot method relative to beta-actin; format: functional
HCT-116 [19] = assay: Induction of apoptosis in human HCT116 cells assessed as CDK2 protein level at 1 uM after 48 hrs by Western blot method relative to beta-actin; format: functional
HCT-116 [20] = assay: Induction of apoptosis in human HCT116 cells assessed as Bcl-2 protein level at 2.5 uM after 48 hrs by Western blot method relative to beta-actin; format: functional
HCT-116 [21] = assay: Induction of apoptosis in human HCT116 cells assessed as cleaved caspase-3 protein level at 1 uM after 48 hrs by Western blot method relative to caspase-3; format: functional
HCT-116 [22] = assay: Induction of apoptosis in human HCT116 cells assessed as cleaved caspase-3 protein level at 5 uM after 48 hrs by Western blot method relative to caspase-3; format: functional
HCT-116 [23] = assay: Induction of apoptosis in human HCT116 cells assessed as caspase-3 protein level at 5 uM after 48 hrs by Western blot method relative to beta-actin; format: functional
HCT-116 [24] = assay: Induction of apoptosis in human HCT116 cells assessed as caspase-3 protein level at 10 uM after 48 hrs by Western blot method relative to beta-actin; format: functional
HT-29 [25] = assay: Induction of apoptosis in human HT-29 cells assessed as p21 protein level at 2.5 uM after 48 hrs by Western blot method relative to beta-actin; format: functional
HT-29 [26] = assay: Induction of apoptosis in human HT-29 cells assessed as p21 protein level at 10 uM after 48 hrs by Western blot method relative to beta-actin; format: functional
HT-29 [27] = assay: Induction of apoptosis in human HT-29 cells assessed as CDK2 protein level at 10 uM after 48 hrs by Western blot method relative to beta-actin; format: functional
HT-29 [28] = assay: Induction of apoptosis in human HT-29 cells assessed as Bcl-2 protein level at 2.5 uM after 48 hrs by Western blot method relative to beta-actin; format: functional
HT-29 [29] = assay: Induction of apoptosis in human HT-29 cells assessed as Bcl-2 protein level at 10 uM after 48 hrs by Western blot method relative to beta-actin; format: functional
HT-29 [30] = assay: Induction of apoptosis in human HT-29 cells assessed as caspase-3 protein level at 1 uM after 48 hrs by Western blot method relative to beta-actin; format: functional
HT-29 [31] = assay: Induction of apoptosis in human HT-29 cells assessed as caspase-3 protein level at 2.5 uM after 48 hrs by Western blot method relative to beta-actin; format: functional
HT-29 [32] = assay: Cytotoxicity against human HT-29 cells assessed as reduction in cell viability by MTT assay; format: functional, cell-based

`O=C(OC[C@H]1O[C@@H](OC(=O)c2cc(O)c(O)c(O)c2)[C@H](OC(=O)c2cc(O)c(O)c(O)c2)[C@@H](OC(=O)c2cc(O)c(O)c(O)c2)[C@@H]1OC(=O)c1cc(O)c(O)c(O)c1)c1cc(O)c(O)c(O)c1` [PENTAGALLOYL GLUCOSE] was tested, and the Activity (HT-29 [1]) was “Active”, the Activity (HT-29 [2]) was “Active” and the Activity (CCD-18Co) was “Non-Toxic”. The Activity (HCT-116 [3]) was “Dose-dependent effect”, the Activity (HCT-116 [4]) was 17.9% and the Activity (HCT-116 [5]) was 9.8%. It also gave an Activity (HCT-116 [6]) of 9%, an Activity (HCT-116 [7]) of 17.8% and an Activity (HCT-116 [8]) of 20.5%. It also gave an Activity (HT-29 [9]) of 37.3%, an Activity (HT-29 [10]) of 11.7% and an Activity (HCT-116 [11]) of 97.55%. For the same compound, the Activity (HCT-116 [12]) was 90.45%, the Activity (HCT-116 [13]) was 1.35% and the Activity (HCT-116 [14]) was 1.85%. The Activity (HCT-116 [15]) was 0.65%, the Activity (HCT-116 [16]) was 0.25% and the Activity (HCT-116 [17]) was “Active”. For the same compound, the “fold change (FC)” value (HCT-116 [18]) was 0.5, the “fold change (FC)” value (HCT-116 [19]) was 0.9 and the “fold change (FC)” value (HCT-116 [20]) was 1.8. The “fold change (FC)” value (HCT-116 [21]) was 1, the “fold change (FC)” value (HCT-116 [22]) was 2 and the “fold change (FC)” value (HCT-116 [23]) was 309.9. For the same compound, the “fold change (FC)” value (HCT-116 [24]) was 488.4, the “fold change (FC)” value (HT-29 [25]) was 2.8 and the “fold change (FC)” value (HT-29 [26]) was 0.1. For the same compound, the “fold change (FC)” value (HT-29 [27]) was 0.8, the “fold change (FC)” value (HT-29 [28]) was 0.3 and the “fold change (FC)” value (HT-29 [29]) was 0.3. The “fold change (FC)” value (HT-29 [30]) was 1.6, the “fold change (FC)” value (HT-29 [31]) was 4.7 and the pIC50 (HT-29 [32]) was 5.35.
